Results taken from patent US4677126A, “Oxa-fenchyl esters and amides of alpha-L-aspartyl-D-phenylglycine” (The Procter & Gamble Company, priority 1986, dated 1987).
Square brackets hold non-standard residues; d marks the D form. Peptide text beside a SMILES is read from it. Phg = N[C@H](C(=O)O)c1ccccc1

Columns and labels:
[1] = literature / prior patents; cited from earlier work
[2] = Sweetness intensity relative to sucrose, taste panel; type: in vivo, human; conditions: based on informal panel testing
Text: The sweetness intensity of the esters and amides of the present invention relative to sucrose can be determined according to the following procedure:
Male subjects are chosen at random from a group of about 20 persons who have previously been selected on the basis of proven tasting acuity, i.e., persons who could easily recognize the four basic tastes (sweet, sour, bitter and salty) and who are adept at quantifying their own physiological response numerically. The subjects are asked to taste and expectorate about 10 ml of a test sample (temperature of about 22° C.) having dissolved therein the ester or amide. […] Sweetness intensity of the test sample is recorded by the subject making a mark on the linear scale at a point they consider equal in sweetness among the standard samples; interpolation between standards is encouraged. After completion of the panel, a five point numeric scale is superimposed on the linear scales to obtain numerical data; data is averaged and recorded to the nearest 0.25 unit. Equivalent sucrose sweetness is determined by referring to graphs of (w/v) sucrose concentration in the standard samples versus a linear numeric scale.
Sweetness intensity is calculated by dividing the concentration (w/v) of perceived sweetness by the concentration (w/v) of the ester or amide required to produce that sweetness. […]

[3] = most carbonated beverages, pH about 2.5 to about 4.8; cited from earlier work

SMILES | sweetness intensity, times that of sucrose [1] | taste quality [1] | also measured
C[C@@H](NC(=O)[C@@H](N)CC(=O)O)C(=O)NC1C(C)(C)S(=O)(=O)C1(C)C | 1000 times that of sucrose | – | –
C[C@@H](NC(=O)[C@@H](N)CC(=O)O)C(=O)NC1C(C)(C)SC1(C)C [2,2,4,4-tetramethylthietan-3-yl] | 2000 times that of sucrose | – | –
CC1CCC(C)C1NC(=O)[C@@H](C)NC(=O)[C@@H](N)CC(=O)O (stereo partly drawn) [2,5 dimethylcyclopentyl] | 520 times that of sucrose | – | –
CC1CCCC(C)C1NC(=O)[C@@H](C)NC(=O)[C@@H](N)CC(=O)O (stereo partly drawn) [2,6-dimethylcyclohexyl] | 600 times that of sucrose | – | –
CC12CCC(O1)C(C)(C)C2OC(=O)[C@H](NC(=O)[C@@H](N)CC(=O)O)c1ccccc1 (stereo partly drawn) [Example 2, alpha-L-Aspartyl-D-phenylglycine-alpha-7-oxa-fenchyl ester] | – | – | Sweetness (× Sucrose) [2]: 1000 × Sucrose; Sweetness intensity ([2]; isolated diastereomer): approximately 1000 X
O=C1NS(=O)(=O)c2ccccc21 [Saccharin] | about 300 times that of sucrose | lingering bitter aftertaste | –
COC(=O)[C@H](Cc1ccccc1)NC(=O)[C@@H](N)CC(=O)O [aspartame, alpha-L-aspartyl-L-phenylalanine methyl ester] (H-Asp-Phe-OMe) | 150-200 times that of sucrose | approaching that of sucrose | hydrolytic stability in carbonated beverages [3]: hydrolytically unstable
C[C@@H](NC(=O)[C@@H](N)CC(=O)O)C(=O)NC(C1CC1)C1CC1 [dicyclopropylcarbinyl] | 1200 times that of sucrose | – | –
CCOC(=O)C(NC(=O)[C@@H](N)CC(=O)O)C(=O)OC1C2(C)CCC(C2)C1(C)C (stereo partly drawn) [ethyl] | 4200-5400 times that of sucrose | – | –
C[C@@H](NC(=O)[C@@H](N)CC(=O)O)C(=O)NC1C2(C)CCC(C2)C1(C)C (stereo partly drawn) [fenchyl] | 320 times that of sucrose | – | –
COC(=O)[C@@H](Cc1ccccc1)NC(=O)[C@@H](N)CC(=O)O [methyl ester of L-aspartyl-D-phenylalanine] (H-Asp-[dF]-OMe) | – | bitter | –
COC(=O)[C@@H](NC(=O)[C@@H](N)CC(=O)O)c1ccccc1 [methyl ester of L-aspartyl-L-phenylglycine] (H-Asp-[Phg]-OMe) | 100-1000 times that of sucrose | quite sweet | –
COC(=O)C(NC(=O)[C@@H](N)CC(=O)O)C(=O)OC1C2(C)CCC(C2)C1(C)C (stereo partly drawn) [methyl] | 22,200-33,200 times that of sucrose | – | –
